Laboratory results reported in patent publication US20260042731A1, “(2,4-DICHLOROPHENOXY)ACETIC ACID ANALOGS” (CORTEVA AGRISCIENCE LLC, priority 2022, published 2026).
Where two headings read alike, the source gives them in different places.

Legend:
[1] = tested on: Amaranthus rudis (AMATA), tall water hemp; assay: Postemergence herbicide evaluation, growth of Amaranthus rudis (AMATA); type: in vivo; conditions: for pest or weed control at 280 g/ha / pest or weed control at 560 g/ha: Amaranthus tuberculatus, post-emergence, read-out: Ave. AMATA, percent reduction in plant size relative to the untreated control
[2] = tested on: Ambrosia artemisiifolia (AMBEL), common ragweed; assay: Postemergence herbicide evaluation, growth of Ambrosia artemisiifolia (AMBEL); type: in vivo; conditions: Ambrosia artemisiifolia, post-emergence, read-out: AVE. AMBEL, percent reduction in plant size relative to the untreated control; for pest or weed control at 280 g/ha: 280 g ae/ha; for pest or weed control at 560 g/ha: 560 g ae/ha
[3] = tested on: Abutilon theophrasti (ABUTH), velvetleaf; assay: Postemergence herbicide evaluation, growth of Abutilon theophrasti (ABUTH); type: in vivo; conditions: for pest or weed control at 280 g/ha / pest or weed control at 560 g/ha: Abutilon theophrasti, post-emergence, read-out: AVE. ABUTH, percent reduction in plant size relative to the untreated control; for pest or weed control at 280 g/ha / AVE. ABUTH, percent reduction in plant size relative to the untreated control: 280 g ae/ha; for pest or weed control at 560 g/ha: 560 g ae/ha
[4] = tested on: Chenopodium album (CHEAL), common lambsquarters; assay: Postemergence herbicide evaluation, growth of Chenopodium album (CHEAL); type: in vivo; conditions: Chenopodium album, post-emergence, read-out: Ave. CHEAL, percent reduction in plant size relative to the untreated control; for pest or weed control at 280 g/ha: 280 g ae/ha; for pest or weed control at 560 g/ha: 560 g ae/ha
[5] = tested on: glyphosate resistant Conyza canadensis (L.) (ERICA), horseweed; assay: Postemergence herbicide evaluation, growth of Conyza canadensis (ERICA); type: in vivo; conditions: Erigeron canadensis, post-emergence, read-out: Ave. ERICA, percent reduction in plant size relative to the untreated control; for pest or weed control at 280 g/ha: 280 g ae/ha; for pest or weed control at 560 g/ha: 560 g ae/ha
[6] = Volatility of compounds measured by thermogravimetric analysis (TGA); type: physicochemical
[7] = tested on: weeds ABUTH, AMATA, AMBEL, CHEAL, ERICA; assay: Postemergence herbicide evaluation, overall average % weed control (ABUTH, AMATA, AMBEL, CHEAL, ERICA); type: in vivo; conditions: post-emergence, read-out: Overall Ave % Weed Control; for pest or weed control at 280 g/ha: 280 g ae/ha; for pest or weed control at 560 g/ha: 560 g ae/ha

Structure (SMILES)	pest or weed control at 280 g/ha ([1]; 168 h, 280 g ae/ha, 7 DAA) [%]	pest or weed control at 280 g/ha ([1]; 336 h, 280 g ae/ha, 14 DAA) [%]	pest or weed control at 560 g/ha ([1]; 336 h, 560 g ae/ha, 14 DAA) [%]	pest or weed control at 560 g/ha ([1]; 504 h, 560 g ae/ha, 21 DAA) [%]	pest or weed control at 280 g/ha ([2]; 168 h, 7 DAA) [%]	pest or weed control at 560 g/ha ([2]; 168 h, 7 DAA) [%]	pest or weed control at 280 g/ha ([2]; 336 h, 14 DAA) [%]	pest or weed control at 560 g/ha ([2]; 336 h, 14 DAA) [%]	pest or weed control at 280 g/ha ([2]; 504 h, 21 DAA) [%]	pest or weed control at 560 g/ha ([2]; 504 h, 21 DAA) [%]	pest or weed control at 560 g/ha ([3]; 168 h, 7 DAA) [%]	pest or weed control at 560 g/ha ([3]; 336 h, 14 DAA) [%]	pest or weed control at 280 g/ha ([3]; 504 h, 21 DAA) [%]	pest or weed control at 560 g/ha ([3]; 504 h, 21 DAA) [%]	pest or weed control at 280 g/ha ([4]; 168 h, 7 DAA) [%]	pest or weed control at 560 g/ha ([4]; 168 h, 7 DAA) [%]	pest or weed control at 280 g/ha ([4]; 336 h, 14 DAA) [%]	pest or weed control at 560 g/ha ([4]; 336 h, 14 DAA) [%]	pest or weed control at 280 g/ha ([4]; 504 h, 21 DAA) [%]	pest or weed control at 560 g/ha ([4]; 504 h, 21 DAA) [%]	other results
C/C(=N\OC(=O)COc1ccc(Cl)cc1Cl)c1ccncc1 [Compound A27]	75	90	96	77.5	80	90	75	82.5	100	100	82.5	98.5	92.5	100	77.5	85	98	94.5	98.5	100	pest or weed control at 560 g/ha ([1]; 168 h, 560 g ae/ha, 7 DAA): 85%; pest or weed control at 280 g/ha ([1]; 504 h, 280 g ae/ha, 21 DAA): 62.5%; pest or weed control at 280 g/ha ([3]; 168 h, 7 DAA): 60%; pest or weed control at 280 g/ha ([3]; 336 h, 14 DAA): 75%; pest or weed control at 280 g/ha ([5]; 168 h, 7 DAA): 85%; pest or weed control at 560 g/ha ([5]; 168 h, 7 DAA): 82.5%; pest or weed control at 280 g/ha ([5]; 336 h, 14 DAA): 100%; pest or weed control at 560 g/ha ([5]; 336 h, 14 DAA): 100%; pest or weed control at 280 g/ha ([5]; 504 h, 21 DAA): 98.5%; pest or weed control at 560 g/ha ([5]; 504 h, 21 DAA): 97.5%; TGA Data (rate of weight loss, volatility) ([6]; value marked *: decomposition of the material was observed): 1.27* μg/min; pest or weed control at 280 g/ha ([7]; 168 h, 7 DAA): 75.5%; pest or weed control at 560 g/ha ([7]; 168 h, 7 DAA): 85%; pest or weed control at 280 g/ha ([7]; 336 h, 14 DAA): 87.6%; pest or weed control at 560 g/ha ([7]; 336 h, 14 DAA): 94.3%; pest or weed control at 280 g/ha ([7]; 504 h, 21 DAA): 90.4%; pest or weed control at 560 g/ha ([7]; 504 h, 21 DAA): 95%
O=C(COc1ccc(Cl)cc1Cl)O/N=C/c1ccncc1 [Compound A30]	75	96	93.5	99	85	96.5	90	97.5	100	100	80	96.5	87.5	99.5	80	80	94	90	98	100	pest or weed control at 560 g/ha ([1]; 168 h, 560 g ae/ha, 7 DAA): 94%; pest or weed control at 280 g/ha ([1]; 504 h, 280 g ae/ha, 21 DAA): 92.5%; pest or weed control at 280 g/ha ([3]; 168 h, 7 DAA): 62.5%; pest or weed control at 280 g/ha ([3]; 336 h, 14 DAA): 77.5%; pest or weed control at 280 g/ha ([5]; 168 h, 7 DAA): 87.5%; pest or weed control at 560 g/ha ([5]; 168 h, 7 DAA): 80%; pest or weed control at 280 g/ha ([5]; 336 h, 14 DAA): 100%; pest or weed control at 560 g/ha ([5]; 336 h, 14 DAA): 100%; pest or weed control at 280 g/ha ([5]; 504 h, 21 DAA): 99%; pest or weed control at 560 g/ha ([5]; 504 h, 21 DAA): 94.5%; TGA Data (rate of weight loss, volatility) [6]: 0.9679 µg/min; pest or weed control at 280 g/ha ([7]; 168 h, 7 DAA): 78%; pest or weed control at 560 g/ha ([7]; 168 h, 7 DAA): 86.1%; pest or weed control at 280 g/ha ([7]; 336 h, 14 DAA): 91.5%; pest or weed control at 560 g/ha ([7]; 336 h, 14 DAA): 95.5%; pest or weed control at 280 g/ha ([7]; 504 h, 21 DAA): 95.4%; pest or weed control at 560 g/ha ([7]; 504 h, 21 DAA): 98.6%
O=C(COc1ccc(Cl)cc1Cl)Oc1cncnc1 [Compound E14, Pyrimidin-5-yl 2-(2,4-dichlorophenoxy)acetate]	89	90	97	100	82.5	77.5	92.5	98.5	100	99.5	67.5	77.5	97.5	97.5	80	77.5	90	92.5	95	100	Ave. AMATA, percent reduction in plant size relative to the untreated control ([1]; 280 g ae/ha, 21 DAA): 92.5%; Ave. AMATA, percent reduction in plant size relative to the untreated control ([1]; 560 g ae/ha, 7 DAA): 98.5%; AVE. ABUTH, percent reduction in plant size relative to the untreated control ([3]; 7 DAA): 65%; AVE. ABUTH, percent reduction in plant size relative to the untreated control ([3]; 14 DAA): 65%; pest or weed control at 280 g/ha ([5]; 168 h, 7 DAA): 75%; pest or weed control at 560 g/ha ([5]; 168 h, 7 DAA): 85%; pest or weed control at 280 g/ha ([5]; 336 h, 14 DAA): 92.5%; pest or weed control at 560 g/ha ([5]; 336 h, 14 DAA): 98%; pest or weed control at 280 g/ha ([5]; 504 h, 21 DAA): 96%; pest or weed control at 560 g/ha ([5]; 504 h, 21 DAA): 99%; TGA Data (rate of weight loss, volatility) [6]: 0.0575 µg/min; pest or weed control at 280 g/ha ([7]; 168 h, 7 DAA): 78.3%; pest or weed control at 560 g/ha ([7]; 168 h, 7 DAA): 81.2%; pest or weed control at 280 g/ha ([7]; 336 h, 14 DAA): 86%; pest or weed control at 560 g/ha ([7]; 336 h, 14 DAA): 92.7%; pest or weed control at 280 g/ha ([7]; 504 h, 21 DAA): 96.2%; pest or weed control at 560 g/ha ([7]; 504 h, 21 DAA): 99.2%
